The text below walks through data of patent US6352727B1, “Bactericides” (Oji Paper Co., Ltd., priority 1998, dated 2002).

Common to all, as to assay type: cell-based
The subject of assay [1] is Trichophyton mentagrphytes. Put plainly: Test of activity against Trichophyton mentagrphytes (paper disk, block circle). To be noted: 8 mm paper disk with 25 μl, dried 24 hours; cultured at 28° C. for five days. How it is done:
A paper disk having a diameter of 8 mm that was previously subjected to dry heat sterilization, was impregnated with 25 μl of each of fungicides shown in Table 8 and allowed to stand for 24 hours to be dried. The paper disk was put on agar medium on which spore suspension of Trichophyton […] previously prepared was spread, and cultured at 28° C. for five days. […] No block circle was formed when a fungicide containing only chitosan (Comparative Example 4) was used.

Assay [2] has as its system Salmonella enteritidis. Put plainly: Test of persistency of bactericidal power on stainless steel. How it is done:
(§1) Each of bactericide shown in Table 8 was sprayed on a sterilized stainless steel plate (15 μl/cm^2), and allowed to stand for seven days in a sterilized room to be dried. Each of the bacteria suspension previously cultured in a similar manner to that described above was diluted with physiological saline. Then, 10 μl of the diluted suspension was spread on the stainless steel. After allowed to stand for 10 minutes, bacterium on the stainless steel were wiped with absorbent cotton, and liberated into physiological saline. Then, visible count was counted. For comparison, 70% ethanol was used as a conventional bactericide. Strong bactericidal power of each bactericide of examples containing both eucalyptus extract and chitosan was maintained, even after elapse of seven days, on the stainless steel on which it was spread. The bactericidal power was stronger than that of bactericides containing only eucalyptus extract (Comparative Examples 1 to 3) or a bactericide containing only chitosan (Comparative Example 4).
(§2) Persistency of bactericidal power of the bactericides shown in Table 16 was evaluated in a similar manner to that of Test Example 3 (allowed to stand for one month). After elapse of one month from spraying of the bactericide, bactericidal power of the bactericide containing glycerol fatty acid ester in addition to eucalyptus extract and chitosan (Example 4) was stronger than that of bactericides containing no glycerol fatty acid ester (Comparative Example 5).

A further assay has as its system MRSA. Described as above. The method, then: as §1, §2
For assay [3], the system named is Staphylococcus aureus. Described as above. The method, then:
as §1, §2

The next assay deals with Bacillus subtilis. The assay is described as above. The method, then:
as §1, §2

The subject of a further assay is Escherichia coli. The description is as above. How it is done: as §1, §2
Assay [4] concerns Staphylococcus aureus IF012732. Put plainly: Test of bactericidal power of bactericides mixed with meat (beef) extract. The method, then:
(§3) It was evaluated whether bactericidal power was lowered when the bactericides shown in Table 20 were mixed with beef extract (Wako Junyaku) according to the following method. For comparison, sodium hypochlorite was also evaluated. Strains used herein were Staphylococcus aureus IF012732 and Salmonella enteritidis IF003313.
(§4) One ml of each of bactericides shown in Table 20 and one ml of 5% beef extract (dissolved in sterilized water) were mixed at a ratio of one to one, and allowed to stand at a room temperature. After 10 minutes, 10 μl of bacteria suspension previously prepared was added to each of the bactericides and the mixture, and allowed to stand after stirred. Change of number of bacteria in the mixture solution was determined (one minute, five minutes and 10 minutes after addition of bacteria). According to previous experiments, it was confirmed that general viable count was 10 or less per one ml of 5% beef extract. As shown in Table 21 and Table 22, when 0.02% of sodium hypochlorite was mixed with a beef extract, bactericidal power thereof was lowered.
The bactericides shown in Table 23 were examined for bactericidal power in a similar manner to that of Test Example 7.

Assay [5] relates to Salmonella enteritidis IF003313. The description is as above. The method, then: as §3, §4
Assay [6] relates to general bacterium on the surface of beef. Put plainly: Number of bacterium on the surface of beef treated with bactericide. Particulars: 5 minutes immersion, preserved at 4° C. The method, then:
50 ml of each of bactericides was charged in a vessel, and then 15 g of beef (block) was immersed in the bactericide, and allowed to stand at room temperature (surface sterilization). After 5 minutes, the bactericide was removed, and only the beef was preserved in the vessel at 4° C. After certain period ((1) after one day, (2) after three days, (3) after six days), 25 ml of physiological saline was added to the vessel containing the beef, and shaked. The number of the bacterium cells liberated from the beef into the physiological saline was counted. It was confirmed according to preliminary experiments that the number of the bacterium cells per one gram of the beef existing on the surface of the beef before sterilization treatment was 10 or less. Sterilized water and sodium hypochlorite were also examined.

Assay [7] deals with Salmonella enteritidis. Put plainly: Test of bactericidal power of bactericides after treating beef (block). Particulars: 5 min. How it is done: (§5) 100 ml of each of bactericides shown in Table 25 was charged into a vessel. 21 g of beef (block) was immersed in the bactericide, and allowed to stand at room temperature. After 24 hours, the beef was removed, and general bacterium (bacterium liberated from the beef) present in the bactericide were removed using a sterilized filter. 30 μl of bacteria suspension of Staphylococcus aureus or Salmonella enteritidis was added to 2 ml of the bactericide after used for the treatment of the beef. After five minutes, the number of bacterium in the bactericide was counted. As for 0.01% sodium hypochlorite, a similar test was conducted, and the results were compared.

For assay [8], the system named is Staphylococcus aureus. The description is as above. Particulars: 5 min. How it is done:
as §5

Where [9] appears, read: mixing treatment of beef extract and bactericide (10 min) done, 1 min.
Setting [10] is: mixing treatment of beef extract and bactericide (10 min) done, 5 min.
Setting [11] is: mixing treatment of beef extract and bactericide (10 min) done, 10 min.
Where [12] appears, read: mixing treatment with beef extract none, 1 min.
Setting [13] is: mixing treatment with beef extract none, 5 min.
Setting [14] is: mixing treatment with beef extract none, 10 min.
[15] abbreviates: treatment of beef done (24 hours).

Turning to `CCO` [70% Ethanol, Ethanol], the “Diameter of block circle” value in [1] was “None”. Besides, the “Viable count (After 7 days)” value in the assay on Salmonella enteritidis [2] is recorded as 4.5 × 10^6 Number/100 cm^2; with MRSA, 1.2 × 10^6 Number/100 cm^2; in the assay with Staphylococcus aureus [3], 3.5 × 10^6 Number/100 cm^2; in the assay on Bacillus subtilis, 3.0 × 10^6 Number/100 cm^2; in the assay with Escherichia coli it was 2.2 × 10^6 Number/100 cm^2.

In the case of `[Na+].[O-]Cl` [0.02% Sodium hypochloryte, sodium hypochlorite], the Viable count in [4] (setting [9]) was 6.5 × 10^6 Number/ml; in assay [4] (setting [10]), 6.5 × 10^6 Number/ml; in assay [4] (setting [11]), 6.4 × 10^6 Number/ml; in assay [4] (setting [12]) it was under 200 Number/ml; in [4] (setting [13]), under 200 Number/ml; in assay [4] (setting [14]), under 200 Number/ml. Besides, the Viable count in assay [5] (setting [9]) was 4.5 × 10^5 Number/ml; in [5] (setting [10]), 4.3 × 10^5 Number/ml; in [5] (setting [11]), 4.3 × 10^5 Number/ml; in [5] (setting [12]), under 200 Number/ml; in assay [5] (setting [13]) it was under 200 Number/ml; in assay [5] (setting [14]), under 200 Number/ml.

Regarding `OCl` [0.01% Sodium hypochlorite, sodium hypochlorite], the “Number of general bacterium” value in assay [6] (After 3 days) is on record as 1.4 × 10^5 Number/g; in assay [6] (After 6 days) it was 3.4 × 10^7 Number/g; in [6] (After one day), 6.7 × 10^2 Number/g. In addition, the Viable count in the assay on Salmonella enteritidis [7] (setting [15]) was 1.5 × 10^5 Number/ml; in the assay on Salmonella enteritidis [7] (treatment of beef none) it was under 1000 Number/ml; in the assay on Staphylococcus aureus [8] (setting [15]), 1.8 × 10^5 Number/ml; in the assay with Staphylococcus aureus [8] (treatment of beef none), under 1000 Number/ml.
